Measurements from ChEMBL document CHEMBL2434869, “Pyrazole containing natural products: synthetic preview and biological significance” (Eur J Med Chem, 2013).

Tests used:
[1] = Cytotoxicity against mouse EAC assessed as growth inhibition; format: functional, Ehrlich
[2] = Toxicity in white mouse; format: organism-based; conditions: in vivo
[3] = Cytotoxicity against rat Walker 256 cells assessed as growth inhibition; format: functional
X5563 = assay: Cytotoxicity against mouse X5563 cells assessed as growth inhibition; format: functional
[4] = Cytotoxicity against mouse Gardner lymphosarcoma cells assessed as growth inhibition; format: functional
[5] = Cytotoxicity against mouse mammary carcinoma 755 cells assessed as growth inhibition; format: functional

Row | Compound | growth inhibition (GI) [1] [%] | MTD [2] [mg/kg] | growth inhibition (GI) [3] [%] | growth inhibition (GI) (X5563) [%] | growth inhibition (GI) [4] [%] | growth inhibition (GI) [5] [%]
1 | COc1[nH]nc2nncnc12 | 83 | 50 | – | – | – | –
2 | COc1nnc2n(C)ncnc1-2 [PSEUDOIODININE] | 64 | 20 | – | – | – | –
3 | NC(=O)c1ncn([C@@H]2O[C@H](CO)[C@@H](O)[C@H]2O)n1 [RIBAVIRIN] | – | – | >50 | >50 | >50 | >50
4 | COc1nnc2nn(C)cnc1-2 | 40 | 0.2 | – | – | – | –
